# Patent US6867207B2, “IL-5 inhibiting 6-azauracil derivatives” (Janssen Pharmaceutica N.V., priority 1997, dated 2005)
# Tested on: IL-5 production
# Test: In vitro inhibition of IL-5 production in human blood (phytohemagglutinin-stimulated whole blood, ELISA);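 further: values marked with an asterisk were tested at 10 µM and unmarked values at 1 µM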
# Assay type: cell-based
# Details: test dose 1×10^−6 M, 48 hours
# Experimental: In Vitro Inhibition of IL-5 Production in Human Blood
# Human Whole Blood Stimulation
# Peripheral blood from healthy male donors was drawn into heparinized syringes (12.5 U heparin/ml). Blood samples were three-fold diluted in RMPI 1640 medium (Life Technologies, Belgium) supplemented with 2 mM L-glutamine, 100 U/ml penicillin and 100 μg/ml streptomycin, and 300 μl fractions were distributed in 24-well multidisc plates. Blood samples were preincubated (60 minutes at 37° C.) in a humidified 6% CO2-atmosphere with 100 μl of drug solvent (final concentration 0.02% dimethylsulfoxide in RPMI 1640) or with 100 μl of an appropriate dose of test compound before being stimulated by the addition of 100 μl of phytohemagglutinin HA17 (Murex, UK) at a final concentration of 2 μg/ml. After 48 hours, cell-free supernatant fluids were collected by centrifugation and stored at −70° C. until tested for the presence of IL-5.
# IL-5 measurements were conducted as described in Van Wauwe et al. (1996, Inflamm Res, 45, 357-363) on page 358 using ELISA.
# Table 9 lists the percentage inhibition of IL-5 production (column “% inh”) at a test dose of 1×10^−6 M, or in case the percentage inhibition is marked with an “*” 1×10^−5 M, the compounds of the present invention.
row,SMILES,% inh. (percentage inhibition of IL-5 production)
1,Cc1nc(C(c2ccc(Cl)cc2)c2c(Cl)cc(-n3ncc(=O)[nH]c3=O)cc2Cl)sc1-c1ccccc1 (racemic) [Comp 248],91%
2,O=c1cnn(-c2cc(Cl)c(C(c3ccc(Cl)cc3)c3nc(-c4ccccc4)c(Cc4ccccc4)s3)c(Cl)c2)c(=O)[nH]1 (racemic) [Comp 249],80%
3,O=c1cnn(-c2cc(Cl)c(C(c3ccc(Cl)cc3)c3nc(-c4cccc(Br)c4)cs3)c(Cl)c2)c(=O)[nH]1 (racemic) [Comp 250],84%
4,CCc1sc(C(C)(c2ccc(Cl)c(Cl)c2)c2c(Cl)cc(-n3ncc(=O)[nH]c3=O)cc2Cl)nc1-c1ccccc1 (racemic) [Comp 251],90%
5,O=c1cnn(-c2cc(Cl)c(C(c3ccc(Cl)cc3)c3nc(-c4cccc(Cl)c4Cl)cs3)c(Cl)c2)c(=O)[nH]1 (racemic) [Comp 252],80%
6,CN(C)Cc1sc(C(c2ccc(Cl)cc2)c2c(Cl)cc(-n3ncc(=O)[nH]c3=O)cc2Cl)nc1-c1ccccc1 (racemic) [Comp 253],96%
7,O=c1cnn(-c2cc(Cl)c(C(c3ccc(Cl)c(C(F)(F)F)c3)c3nc(-c4ccccc4Cl)cs3)c(Cl)c2)c(=O)[nH]1 (racemic) [Comp 254],86%
8,COc1cc(-n2ncc(=O)[nH]c2=O)ccc1C(C)(c1ccc(Cl)c(C(F)(F)F)c1)c1nc(-c2ccccc2)cs1 (racemic) [Comp 255],67%
9,CCOC(=O)Cc1sc(C(c2ccc(Cl)cc2)c2c(Cl)cc(-n3ncc(=O)[nH]c3=O)cc2Cl)nc1-c1ccccc1 (racemic) [Comp 256],94%
10,O=c1cnn(-c2cc(Cl)c(C(c3ccc(Cl)cc3)c3nc(-c4cc(Cl)ccc4Cl)cs3)c(Cl)c2)c(=O)[nH]1 (racemic) [Comp 257],82%
11,Cc1sc(C(c2ccc(Cl)cc2)c2c(Cl)cc(-n3ncc(=O)[nH]c3=O)cc2Cl)nc1-c1cccc(F)c1 (racemic) [Comp 258],98%
12,Cc1sc(C(c2ccc(Cl)cc2)c2c(Cl)cc(-n3ncc(=O)[nH]c3=O)cc2Cl)nc1-c1ccccc1F (racemic) [Comp 259],95%
13,CCc1sc(C(c2ccc(Cl)cc2)c2c(Cl)cc(-n3ncc(=O)[nH]c3=O)cc2Cl)nc1-c1cccc(F)c1 (racemic) [Comp 260],98%
14,CCc1sc(C(c2ccc(Cl)cc2)c2c(Cl)cc(-n3ncc(=O)[nH]c3=O)cc2Cl)nc1-c1ccccc1F (racemic) [Comp 261],93%
15,COc1ccccc1-c1csc(C(c2ccc(Cl)cc2)c2c(Cl)cc(-n3ncc(=O)[nH]c3=O)cc2Cl)n1 (racemic) [Comp 263],92%
16,O=c1cnn(-c2cc(Cl)c(C(c3ccc(Cl)cc3)c3nc(-c4c(Cl)cccc4Cl)cs3)c(Cl)c2)c(=O)[nH]1 (racemic) [Comp 264],79%
17,CN(C)CCNC(c1ccc(Cl)cc1)(c1nc(-c2ccccc2)c(Cl)s1)c1ccc(-n2ncc(=O)[nH]c2=O)cc1Cl (racemic) [Comp 266],46%
18,O=c1cnn(-c2cc(Cl)c(C(c3ccc(Cl)cc3)c3ncc(-c4ccccc4)s3)c(Cl)c2)c(=O)[nH]1 (racemic) [Comp 267],81%
19,Cc1sc(C(c2ccc(Cl)cc2)c2c(Cl)cc(-n3ncc(=O)[nH]c3=O)cc2Cl)nc1-c1c(F)cccc1F (racemic) [Comp 268],83%
20,Cc1cc(C(c2nc(-c3ccccc3)cs2)c2c(Cl)cc(-n3ncc(=O)[nH]c3=O)cc2Cl)ccc1Cl (racemic) [Comp 269],90%
21,Cc1cc(-n2ncc(=O)[nH]c2=O)cc(C)c1C(c1ccc(Cl)c(Cl)c1)c1nc(-c2ccccc2)cs1 (racemic) [Comp 270],86%
22,Cc1cc(-n2ncc(=O)[nH]c2=O)cc(C)c1C(c1ccc(Cl)c(Cl)c1)c1nc(-c2ccccc2)c(C)s1 (racemic) [Comp 271],88%
23,Cc1sc(C(c2ccc(Cl)cc2)c2c(Cl)cc(-n3ncc(=O)[nH]c3=O)cc2Cl)nc1-c1ccccc1Cl (racemic) [Comp 272],87%

row,SMILES,% inh. (percentage inhibition of IL-5 production)
1,O=C(c1ccccc1)c1sc(C(c2ccc(Cl)cc2)c2c(Cl)cc(-n3ncc(=O)[nH]c3=O)cc2Cl)nc1-c1ccccc1 (racemic) [Comp 273],77%
2,CCOC(=O)c1sc(C(c2ccc(Cl)cc2)c2c(Cl)cc(-n3ncc(=O)[nH]c3=O)cc2Cl)nc1-c1ccccc1Cl (racemic) [Comp 274],89%
3,CN(C)C(=O)Cc1sc(C(c2ccc(Cl)cc2)c2c(Cl)cc(-n3ncc(=O)[nH]c3=O)cc2Cl)nc1-c1ccccc1 (racemic) [Comp 275],94%
4,O=C(Cc1sc(C(c2ccc(Cl)cc2)c2c(Cl)cc(-n3ncc(=O)[nH]c3=O)cc2Cl)nc1-c1ccccc1)N1CCOCC1 (racemic) [Comp 276],91%
5,COCc1sc(C(c2ccc(Cl)cc2)c2c(Cl)cc(-n3ncc(=O)[nH]c3=O)cc2Cl)nc1-c1ccccc1 (racemic) [Comp 278],97%
6,CN(C)CCc1sc(C(c2ccc(Cl)cc2)c2c(Cl)cc(-n3ncc(=O)[nH]c3=O)cc2Cl)nc1-c1ccccc1 (racemic) [Comp 279],92%
7,CN(C)Cc1sc(C(c2ccc(Cl)cc2)c2c(Cl)cc(-n3ncc(=O)[nH]c3=O)cc2Cl)nc1-c1cccc(F)c1 (racemic) [Comp 280],96%
8,CN(C)C(=O)CCc1sc(C(c2ccc(Cl)cc2)c2c(Cl)cc(-n3ncc(=O)[nH]c3=O)cc2Cl)nc1-c1ccccc1 (racemic) [Comp 281],91%
9,O=c1cnn(-c2cc(Cl)c(C(c3ccc(Cl)cc3)c3nc(-c4ccccc4)c(CO)s3)c(Cl)c2)c(=O)[nH]1 (racemic) [Comp 282],93%
10,CN1CCC(C(=O)Cc2sc(C(c3ccc(Cl)cc3)c3c(Cl)cc(-n4ncc(=O)[nH]c4=O)cc3Cl)nc2-c2ccccc2)CC1 (racemic) [Comp 283],93%
11,O=c1cnn(-c2cc(Cl)c(C(c3ccc(Cl)cc3)c3nc(-c4ccccc4)c(C4CCCCC4)s3)c(Cl)c2)c(=O)[nH]1 (racemic) [Comp 284],91%
12,CCOC(=O)c1sc(C(c2ccc(Cl)cc2)c2c(Cl)cc(-n3ncc(=O)[nH]c3=O)cc2Cl)nc1-c1ccccc1F (racemic) [Comp 285],89%
13,O=c1cnn(-c2cc(Cl)c(C(c3ccc(Cl)cc3)c3nc(-c4cc(F)cc(F)c4)cs3)c(Cl)c2)c(=O)[nH]1 (racemic) [Comp 286],86%
14,Cc1sc(C(c2ccc(Cl)cc2)c2c(Cl)cc(-n3ncc(=O)[nH]c3=O)cc2Cl)nc1-c1cccc(F)c1 (racemic) [Comp 287],94%
15,CC(c1ccc(Cl)c(F)c1)(c1nc(-c2ccccc2)cs1)c1c(Cl)cc(-n2ncc(=O)[nH]c2=O)cc1Cl (racemic) [Comp 288],90%
16,COc1cc(C(c2nc(-c3ccccc3)cs2)c2c(Cl)cc(-n3ncc(=O)[nH]c3=O)cc2Cl)ccc1Cl (racemic) [Comp 289],96%
17,O=c1cnn(-c2cc(Cl)c(C(c3ccc(Cl)cc3)c3nc(-c4cc(F)ccc4F)cs3)c(Cl)c2)c(=O)[nH]1 (racemic) [Comp 290],92%
18,O=c1cnn(-c2cc(Cl)c(C(c3ccc(Cl)cc3)c3nc(-c4ccccc4)c(CN4CCOCC4)s3)c(Cl)c2)c(=O)[nH]1 (racemic) [Comp 292],94%
19,CCOC(=O)Cc1sc(C(c2ccc(Cl)cc2)c2c(Cl)cc(-n3ncc(=O)[nH]c3=O)cc2Cl)nc1-c1ccccc1Cl (racemic) [Comp 293],59%
20,O=c1cnn(-c2cc(Cl)c(C(c3ccc(Cl)cc3)c3nc(-c4ccc(Br)cc4)cs3)c(Cl)c2)c(=O)[nH]1 (racemic) [Comp 294],85%
21,CCOCc1sc(C(c2ccc(Cl)cc2)c2c(Cl)cc(-n3ncc(=O)[nH]c3=O)cc2Cl)nc1-c1ccccc1 (racemic) [Comp 295],90%
22,CNCc1sc(C(c2ccc(Cl)cc2)c2c(Cl)cc(-n3ncc(=O)[nH]c3=O)cc2Cl)nc1-c1ccccc1.Cl.O.O.O (racemic) [Comp 296],92%
23,CN(Cc1ccccc1)Cc1sc(C(c2ccc(Cl)cc2)c2c(Cl)cc(-n3ncc(=O)[nH]c3=O)cc2Cl)nc1-c1ccccc1 (racemic) [Comp 297],90%
